pKi: −log10 of the molar value. In brackets after ≈: the same amount, converted by molar mass.
What was measured:
Staphylococcus aureus [1] = experiment: Antibacterial activity against Staphylococcus aureus Smith ATCC 13709 in presence of 20% mouse serum by CLSI microdilution method; format: functional
Staphylococcus aureus [2] = experiment: Antibacterial activity against Staphylococcus aureus Smith ATCC 13709 by CLSI microdilution method; format: functional
[3] = Inhibition of Haemophilus influenzae DHFR assessed as oxidation of NADPH using dihydrofolate as substrate pre-incubated for 10 mins before substrate addition by spectrophotometry
Enterococcus faecalis = experiment: Antibacterial activity against Enterococcus faecalis ATCC 29212 by CLSI microdilution method; format: functional
Staphylococcus aureus [4] = experiment: Antibacterial activity against TMP-resistant Staphylococcus aureus harboring DHFR F99Y mutant by CLSI microdilution method; format: functional
Haemophilus influenzae = experiment: Antibacterial activity against ampicillin-resistant Haemophilus influenzae ATCC 49247 by CLSI microdilution method; format: functional
Escherichia coli = experiment: Antibacterial activity against Escherichia coli ATCC 35218 by CLSI microdilution method; format: functional
Dihydrofolate reductase [5] = biological target: T1, Dihydrofolate reductase (Homo sapiens, UniProt P00374); experiment: Inhibition of human DHFR assessed as oxidation of NADPH using dihydrofolate as substrate pre-incubated for 10 mins before substrate addition by spectrophotometry
T1 sequence (P00374 whole entry): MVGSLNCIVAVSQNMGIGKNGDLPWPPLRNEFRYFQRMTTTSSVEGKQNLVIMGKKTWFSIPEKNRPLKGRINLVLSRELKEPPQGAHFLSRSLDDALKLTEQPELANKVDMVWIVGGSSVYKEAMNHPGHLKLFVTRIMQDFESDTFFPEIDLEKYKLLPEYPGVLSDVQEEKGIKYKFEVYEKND

Dihydrofolate reductase [6] = biological target: Dihydrofolate reductase (Staphylococcus aureus, UniProt P0A017); experiment: Inhibition of Staphylococcus aureus DHFR assessed as oxidation of NADPH using dihydrofolate as substrate pre-incubated for 10 mins before substrate addition by spectrophotometry
Dihydrofolate reductase [7] = biological target: Dihydrofolate reductase (Staphylococcus aureus, UniProt P0A017, F99Y); experiment: Inhibition of TMP-resistant Staphylococcus aureus DHFR F99Y mutant assessed as oxidation of NADPH using dihydrofolate as substrate pre-incubated for 10 mins before substrate addition by spectrophotometry

| SMILES | MIC (Staphylococcus aureus [1]) [µg/mL] | MIC (Staphylococcus aureus [2]) [µg/mL] | pKi [3] | MIC (Enterococcus faecalis) [µg/mL] | MIC (Staphylococcus aureus [4]) [µg/mL] | MIC (Haemophilus influenzae) [µg/mL] | MIC (Escherichia coli) [µg/mL] | pKi (Dihydrofolate reductase [5]) | pKi (Dihydrofolate reductase [6]) | pKi (Dihydrofolate reductase [7]) |
| --- | --- | --- | --- | --- | --- | --- | --- | --- | --- | --- |
| COc1cc(Cc2cnc(N)nc2N)c2c(c1OC)OC(C1CC1)C=C2 (configuration not stated) | 0.13 | 0.13 (≈ 0.367 µM) | 11.15 | 0.03 (≈ 0.0846 µM) | 2 (≈ 5.64 µM) | 1 (≈ 2.82 µM) | 4 (≈ 11.3 µM) | – | – | – |
| Cc1cc2c(N)nc(N)nc2cc1-c1ccccc1C(C)C | 1 | 0.25 (≈ 0.855 µM) | 10.43 | 0.5 (≈ 1.71 µM) | – | 8 (≈ 27.4 µM) | 16 (≈ 54.7 µM) | 7.68 | 9.89 | – |
| Nc1nc(N)c2ccc(-c3ccccc3)cc2n1 | 64 | 8 (≈ 33.9 µM) | 9.28 | 8 (≈ 33.9 µM) | – | 16 (≈ 67.7 µM) | 16 (≈ 67.7 µM) | 6.13 | 8.04 | – |
| Cc1cc2c(N)nc(N)nc2cc1-c1ccccc1 | 2 | 1 (≈ 4 µM) | 11.14 | 0.5 (≈ 2 µM) | – | 2 (≈ 7.99 µM) | 8 (≈ 32 µM) | 6.89 | 8.80 | – |
| Nc1ccc(-c2ccc3c(N)nc(N)nc3c2)cc1 | 2 | 4 (≈ 15.9 µM) | 9.80 | 8 (≈ 31.8 µM) | – | 4 (≈ 15.9 µM) | 32 (≈ 127 µM) | – | – | – |
| Cc1cc2c(N)nc(N)nc2cc1-c1ccc(N)cc1 | 1 | 1 (≈ 3.77 µM) | 11.74 | 0.5 (≈ 1.88 µM) | – | 2 (≈ 7.54 µM) | 8 (≈ 30.2 µM) | – | – | – |
| CS(=O)(=O)c1ccc(-c2ccc3c(N)nc(N)nc3c2)cc1 | 8 | 8 (≈ 25.4 µM) | 9.66 | 16 (≈ 50.9 µM) | – | 16 (≈ 50.9 µM) | > 64 | 6.60 | 8.30 | – |
| Cc1cc2c(N)nc(N)nc2cc1-c1ccc(S(C)(=O)=O)cc1 | 1 | 2 (≈ 6.09 µM) | 11.64 | 1 (≈ 3.05 µM) | – | 8 (≈ 24.4 µM) | 32 (≈ 97.4 µM) | 7.36 | 8.92 | – |
| COc1ccccc1-c1ccc2c(N)nc(N)nc2c1 | 4 | 2 (≈ 7.51 µM) | 9.68 | 4 (≈ 15 µM) | – | 16 (≈ 60.1 µM) | 32 (≈ 120 µM) | – | – | – |
| COc1ccc(-c2cc3nc(N)nc(N)c3cc2C)cc1OC | 0.5 | 0.5 (≈ 1.61 µM) | 11.74 | 0.5 (≈ 1.61 µM) | – | 4 (≈ 12.9 µM) | 8 (≈ 25.8 µM) | 7.91 | 9.46 | – |
| COc1ccc(OC)c(-c2cc3nc(N)nc(N)c3cc2C)c1 | 1 | 1 (≈ 3.22 µM) | 10.85 | 4 (≈ 12.9 µM) | – | 8 (≈ 25.8 µM) | 16 (≈ 51.6 µM) | – | – | – |
| Cc1ccccc1-c1cc2nc(N)nc(N)c2cc1C | 2 | 0.5 (≈ 1.89 µM) | 10.43 | 0.5 (≈ 1.89 µM) | – | 4 (≈ 15.1 µM) | 8 (≈ 30.3 µM) | 7.02 | 9.11 | – |
| CCc1ccccc1-c1cc2nc(N)nc(N)c2cc1C | 0.5 | 0.25 (≈ 0.898 µM) | 10.49 | 0.25 (≈ 0.898 µM) | – | 8 (≈ 28.7 µM) | 8 (≈ 28.7 µM) | 7.39 | 9.72 | – |
| CCOc1ccccc1-c1ccc2c(N)nc(N)nc2c1 | 8 | 4 (≈ 14.3 µM) | 9.57 | 4 (≈ 14.3 µM) | – | 16 (≈ 57.1 µM) | 32 (≈ 114 µM) | 7.07 | 8.51 | – |
| CC(=O)c1cccc(-c2ccc3c(N)nc(N)nc3c2)c1 | 8 | 4 (≈ 14.4 µM) | 9.51 | 4 (≈ 14.4 µM) | – | 64 (≈ 230 µM) | 32 (≈ 115 µM) | – | – | – |
| CC(=O)c1cccc(-c2cc3nc(N)nc(N)c3cc2C)c1 | 1 | 0.5 (≈ 1.71 µM) | 11.22 | 0.5 (≈ 1.71 µM) | – | 1 (≈ 3.42 µM) | 4 (≈ 13.7 µM) | – | – | – |
| CCOc1ccc(C=O)cc1-c1cc2nc(N)nc(N)c2cc1C | 1 | 1 (≈ 3.1 µM) | 9.66 | 0.5 (≈ 1.55 µM) | – | 2 (≈ 6.2 µM) | 16 (≈ 49.6 µM) | 7.92 | 9.62 | – |
| CCOc1ccc(Cl)cc1-c1cc2nc(N)nc(N)c2cc1C | 2 | 1 (≈ 3.04 µM) | 10.64 | 0.5 (≈ 1.52 µM) | – | 8 (≈ 24.3 µM) | 8 (≈ 24.3 µM) | 7.95 | 9.42 | – |
| CCOc1ccc(C)cc1-c1cc2nc(N)nc(N)c2cc1C | 4 | 1 (≈ 3.24 µM) | 10.47 | 0.5 (≈ 1.62 µM) | – | 16 (≈ 51.9 µM) | 16 (≈ 51.9 µM) | 7.65 | 9.07 | – |
| CCOc1ccc(Br)cc1-c1cc2nc(N)nc(N)c2cc1C | 8 | 1 (≈ 2.68 µM) | 10.36 | 0.5 (≈ 1.34 µM) | – | 32 (≈ 85.7 µM) | 32 (≈ 85.7 µM) | 7.95 | 9.12 | – |
| CCOc1ccc2[nH]ccc2c1-c1cc2nc(N)nc(N)c2cc1C | 1 | 0.25 (≈ 0.75 µM) | 10.09 | 0.25 (≈ 0.75 µM) | – | 16 (≈ 48 µM) | 8 (≈ 24 µM) | 6.61 | 9.21 | – |
| CCOc1ccc(-c2cccnc2)cc1-c1ccc2c(N)nc(N)nc2c1 | 8 | 0.5 (≈ 1.4 µM) | 10.96 | 0.5 (≈ 1.4 µM) | – | 16 (≈ 44.8 µM) | > 16 | 8.00 | 9.52 | – |
| CCOc1ccc(-c2cccc(NS(C)(=O)=O)c2)cc1-c1ccc2c(N)nc(N)nc2c1 | 2 | 0.5 (≈ 1.11 µM) | 11.31 | 0.5 (≈ 1.11 µM) | – | 8 (≈ 17.8 µM) | 64 (≈ 142 µM) | – | – | – |
| CCOc1ccc2ccccc2c1-c1cc2nc(N)nc(N)c2cc1C | 0.5 | 0.125 (≈ 0.363 µM) | 10.82 | 0.5 (≈ 1.45 µM) | 1 (≈ 2.9 µM) | 16 (≈ 46.5 µM) | 16 (≈ 46.5 µM) | – | – | 8.62 |
| CCOc1ccc(C(=O)N(CC)CC)cc1-c1cc2nc(N)nc(N)c2cc1C | 0.5 | 0.5 (≈ 1.27 µM) | 10.89 | 0.5 (≈ 1.27 µM) | 8 (≈ 20.3 µM) | 64 (≈ 163 µM) | 64 (≈ 163 µM) | – | – | 8.22 |
| COc1cc(Cc2cnc(N)nc2N)cc(OC)c1OC [TRIMETHOPRIM] | 1 | 1 (≈ 3.44 µM) | 9.72 | 0.5 (≈ 1.72 µM) | 32 (≈ 110 µM) | 0.5 (≈ 1.72 µM) | 1 (≈ 3.44 µM) | – | – | – |
